# Data: publication PMC10491836, “Structural dynamics influences the antibacterial activity of a cell-penetrating peptide (KFF)3K” (Scientific Reports, 2023)
# Like-named read-outs stand apart in the source and are kept apart here. Positions of bridges follow the written chain, without caps; N, C: chain ends. Non-standard residues stand in square brackets, D forms with d. Residues, ends and D or L forms follow the SMILES beside them. No end group written: not given here. S5 = C=CCCC[C@](C)(N)C(=O)O
# What was measured:
# [1] = molecular target: T1, α-chymotrypsin from bovine pancreas (Bos taurus, UniProt P00766); assay: in vitro; type: in vitro ADME; conditions: pH 8
# T1 construct: α-chymotrypsin from bovine pancreas; from tissue; host or cells: bovine pancreas
# Method: (§1) The proteolytic stability of peptides was analyzed against α-chymotrypsin from bovine pancreas (3.4.21.1, ≥ 40 units/mg protein). Peptide solutions (340 µL) in ammonium bicarbonate buffer (0.1 M NH4HCO3, pH 8.0) were incubated with the appropriate amount of chymotrypsin at 37 °C with rapid shaking (600 rpm). Chymotrypsin and peptides were mixed in the 1:1333 ratio[47],[71]. Digestion mixture (60 µL) was taken at 4, 8, 12, 16, and 20 min and treated with 3 µL of 50% acetonitrile containing 1% TFA to stop the reaction and immediately store in ice. Peptide degradation was analyzed with RP-HPLC using the analytical method from 15 to 75% of acetonitrile in 30 min. Before the injection, the sample was diluted by adding 57 µL of ammonium bicarbonate buffer. 100 µL of the solution taken in each period was injected. The stabilities were quantified as the percentage of the peptide peak of area degradation. The total area of each peak was determined for experiments without chymotrypsin. Each experiment was performed twice on different days.
# E. coli O157:H7 ST2-8624 [2] = type: cell-based; conditions: MHB, 20 h, 37 °C, OD600; at least two biological replicates of two technical replicates; tested up to 32 µM
# Method: (§2) The minimal inhibitory concentration (MIC) values were determined as follows. Bacteria were first cultured overnight in 2 mL of Lysogeny Broth (LB, VWR Chemicals) at 37 °C with shaking. Second, 20 µL of overnight culture was transferred into 2 mL of MHB medium and further cultured at 37 °C with shaking until the culture reached OD600 of 0.3. Third, the culture was diluted 1:100 in a fresh MHB medium and aliquots of 50 µL were mixed with 50 µL of the previously prepared dilutions of the tested compound in MHB on a transparent flat-bottom 96-well plate (Nest). The plate was then sealed with transparent foil (Titer-Tops) and incubated for 20 h, at 37 °C with shaking. Following incubation, OD at 600 nm was measured using the Tecan Sunrise plate reader. Growth inhibition was determined by comparing the given sample with untreated culture (Growth Control—GC) with MHB alone (Sterility Control—SC) as an additional reference. The experiment was performed in at least two biological replicates of two technical replicates each. Statistical significance was determined by a Two-way ANOVA test using GraphPad Prism 9.
# E. coli 1841-06 [3] = type: cell-based
# Method: as §2
# S. aureus ATCC 29213 [4] = type: cell-based
# Method: as §2
# [5] = system: S. aureus ATCC BAA1720 MRSA; type: cell-based; conditions: MHB, 20 h, 37 °C, OD600; methicillin-resistant strain; tested up to 32 µM
# Method: as §2
# [6] = system: Ps. aeruginosa ATCC 27853; type: cell-based
# Method: as §2
# E. coli O157:H7 ST2-8624 [7] = type: cell-based; conditions: wells of MIC plate diluted 10, 100, 1000 times in MHB, 24 h, 37 °C
# Method: (§3) The minimal bactericidal concentration (MBC) values were determined, by diluting wells from the MIC experiment plate in fresh MHB medium. Dilutions of 10, 100, and 1000 times were prepared for the MIC well and up to two higher than MIC concentrations of the tested compound. Dilutions were made on a transparent flat-bottom 96-well plate (Nest) that was next sealed and incubated for 24 h, at 37 °C with shaking. Growth in a given sample well was compared with GC and SC controls.
# E. coli 1841-06 [8] = type: cell-based; remark: listed apart in the source
# Method: as §3
# S. aureus ATCC 29213 [9] = type: cell-based; remark: listed apart in the source
# Method: as §3
# [10] = system: S. aureus ATCC BAA1720 MRSA; type: cell-based
# Method: as §3
# [11] = system: Ps. aeruginosa ATCC 27853; type: cell-based; remark: listed apart in the source
# Method: as §3
# E. coli K12 [12] = type: cell-based
# Method: as §3
# E. coli K12 [13] = assay: Antibacterial activity determination, MIC; type: cell-based; conditions: MHB, 20 h, 37 °C, OD600; reference non-pathogenic strain; tested up to 32 µM
# Method: as §2
# [14] = system: various Gram-positive and Gram-negative strains; assay: MIC over the panel of strains (summary statements); type: cell-based
# Method: as §2
# [15] = system: Gram-positive and Gram-negative strains; conditions: both Gram-positive and Gram-negative strains; cited from earlier work
# Source text: Furthermore, a single-point mutation of a peptide sequence can change its solely cell-penetrating ability into antimicrobial activity, or vice versa. It was shown that the incorporation of hydrophobic or cationic residues changed the character of a CPP into a more antibacterial one.
# α-chymotrypsin = system: T2, α-chymotrypsin; assay: in vitro; type: in vitro ADME, bovine; conditions: isolated enzyme chymotrypsin, pH 8
# T2 construct: α-chymotrypsin from bovine pancreas; from tissue; host or cells: bovine pancreas
# Method: as §1
# [16] = MHB, 20 h, 37 °C, OD600, tested up to 32 µM
# [17] = wells of MIC plate diluted 10, 100, 1000 times in MHB, 24 h, 37 °C
Compound,MIC (E. coli O157:H7 ST2-8624 [2]),"MIC (E. coli 1841-06 [3]; 1841-06, 20 h)","MIC (S. aureus ATCC 29213 [4]; ATCC 29213, 20 h)",MIC [5],"MIC ([6]; ATCC 27853, 20 h)",MBC (E. coli O157:H7 ST2-8624 [7]),"MBC (E. coli 1841-06 [8]; 1841-06, 24 h)","MBC (S. aureus ATCC 29213 [9]; ATCC 29213, 24 h)","MBC ([10]; ATCC BAA1720, 24 h)","MBC ([11]; ATCC 27853, 24 h)","MBC (E. coli K12 [12]; K12, 24 h)",MIC (E. coli K12 [13]),also measured
C[C@@]1(C(=O)N[C@@H](CCCCN)C(N)=O)CCCC=CCCC[C@](C)(NC(=O)[C@H](CCCCN)NC(=O)[C@H](Cc2ccccc2)NC(=O)[C@H](Cc2ccccc2)NC(=O)[C@@H](N)CCCCN)C(=O)N[C@@H](Cc2ccccc2)C(=O)N[C@@H](CCCCN)C(=O)N[C@@H](Cc2ccccc2)C(=O)N1 [(KFF)3K[5–9]] (H-KFFK[S5]FKF[S5]K-NH2; staple 5-9),8 µM,4 µM,8 to 16 µM,16 µM,4 µM,8 µM,8 µM,16 µM,32 µM,4 µM,2 µM,2 µM,peptide remained undigested after incubation in chymotrypsin solution [1]: 90%
polymyxin B,0.5 to 1 µM,–,–,> 32 µM,–,0.5 to 1 µM,–,–,–,–,–,0.125 µM,"antibacterial activity ([14]; Gram-positive strains, tested up to 32 µM): not active; MIC (E. coli 1841-06 [3]; MHB, 20 h, 37 °C, OD600, β-lactam resistant strain, tested up to 32 µM): 1 µM; MIC (S. aureus ATCC 29213 [4]; [16]): > 32 µM; MIC [6, 16]: 1 µM; MBC (E. coli 1841-06 [8]; [17]): 1 µM; MBC (S. aureus ATCC 29213 [9]; [17]): > 32 µM; MBC [10, 17]: > 32 µM; MBC [11, 17]: 1 µM; MBC (E. coli K12 [12]; [17]): 0.125 µM"
"KETWWETWWTEWSQPKKKRKV [Pep-1, amphipathic cell-penetrating peptide quoted from the literature]",–,–,–,–,–,–,–,–,–,–,–,–,MIC [15]: 32 to 64 µM
KFFKFFKFFK-NH2 [(KFF)3K],32 µM,> 32 µM,> 32 µM,> 32 µM,32 µM,≥ 32 µM,> 32 µM,> 32 µM,> 32 µM,≥ 32 µM,32 µM,32 µM,metabolised at 20 min (α-chymotrypsin): 70%; MIC ([14]; all Gram-positive and Gram-negative strains tested): > 32 µM
C[C@@]1(C(=O)N[C@@H](CCCCN)C(=O)N[C@@H](Cc2ccccc2)C(=O)N[C@@H](Cc2ccccc2)C(=O)N[C@@H](CCCCN)C(N)=O)CCCC=CCCC[C@](C)(NC(=O)[C@@H](N)CCCCN)C(=O)N[C@@H](Cc2ccccc2)C(=O)N[C@@H](CCCCN)C(=O)N[C@@H](Cc2ccccc2)C(=O)N1 [(KFF)3K[2–6]] (H-K[S5]FKF[S5]KFFK-NH2; staple 2-6),4 µM,4 µM,16 µM,8 µM,4 to 8 µM,4 µM,4 µM,16 to 32 µM,16 to 32 µM,8 µM,2 µM,2 µM,–
